From ChEMBL document CHEMBL1139568, “Carbonic anhydrase inhibitors. Inhibition of cytosolic/tumor-associated carbonic anhydrase isozymes I, II, IX, and XII with Schiff's bases incorporating chromone and aromatic sulfonamide moieties, and their zinc complexes” (Bioorg Med Chem Lett, 2005)
pKi: −log10 of the molar value.

Key:
Carbonic anhydrase 9 = Carbonic anhydrase 9 (Homo sapiens, UniProt Q16790)
Description: Inhibition constant against human carbonic anhydrase IX

Carbonic anhydrase 2 = Carbonic anhydrase 2 (Homo sapiens, UniProt P00918)
Description: Inhibition constant against human carbonic anhydrase II

Carbonic anhydrase 1 = Carbonic anhydrase 1 (Homo sapiens, UniProt P00915)
Description: Inhibition constant against human carbonic anhydrase I

Carbonic anhydrase 12 = Carbonic anhydrase 12 (Homo sapiens, UniProt O43570)
Description: Inhibition constant against human carbonic anhydrase XII

[1] = tested as the Zn salt or complex

Chain of Carbonic anhydrase 1 (P00915 whole entry): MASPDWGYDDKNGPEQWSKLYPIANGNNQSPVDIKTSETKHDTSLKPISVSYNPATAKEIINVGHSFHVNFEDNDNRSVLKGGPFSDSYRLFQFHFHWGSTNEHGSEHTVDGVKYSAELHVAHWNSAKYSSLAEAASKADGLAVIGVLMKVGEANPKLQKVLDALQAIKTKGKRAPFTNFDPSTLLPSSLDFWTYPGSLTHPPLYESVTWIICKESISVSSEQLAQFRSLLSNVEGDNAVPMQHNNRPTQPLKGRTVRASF
Chain of Carbonic anhydrase 12 (O43570 whole entry): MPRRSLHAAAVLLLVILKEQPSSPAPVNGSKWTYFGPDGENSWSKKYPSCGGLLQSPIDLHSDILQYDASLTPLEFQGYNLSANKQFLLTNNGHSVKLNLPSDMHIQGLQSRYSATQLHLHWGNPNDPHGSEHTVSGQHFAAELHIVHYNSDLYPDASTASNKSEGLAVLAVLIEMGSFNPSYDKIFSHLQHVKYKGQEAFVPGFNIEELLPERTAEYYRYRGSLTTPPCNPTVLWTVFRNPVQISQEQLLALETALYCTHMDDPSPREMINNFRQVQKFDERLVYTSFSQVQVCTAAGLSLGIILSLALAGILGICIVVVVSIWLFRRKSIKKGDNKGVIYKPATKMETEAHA

Row | Structure (SMILES) | pKi (Carbonic anhydrase 9) | pKi (Carbonic anhydrase 9; [1]) | also measured
1 | Cc1ccc2occ(/C=N/c3ccc(S(N)(=O)=O)cc3)c(=O)c2c1 [listing 1 of 2 here] | 7.32 | – | –
2 | Cc1ccc2occ(/C=N/CCc3ccc(S(N)(=O)=O)cc3)c(=O)c2c1 [listing 1 of 2 here] | 7.43 | – | –
3 | NS(=O)(=O)c1ccc(NCc2coc3ccccc3c2=O)cc1 | – | 8.00 | –
4 | NS(=O)(=O)c1ccc(CC/N=C/c2coc3ccccc3c2=O)cc1 | 7.59 | – | –
5 | Cc1ccc2occ(CNCCc3ccc(S(N)(=O)=O)cc3)c(=O)c2c1 | – | 7.92 | –
6 | NS(=O)(=O)c1ccc(CNCc2coc3ccccc3c2=O)cc1 | – | 8.09 | –
7 | Cc1ccc2occ(/C=N/c3ccc(S(=O)(=O)N=C(N)N)cc3)c(=O)c2c1 | < 6.00 | – | pKi (Carbonic anhydrase 2): < 6.00; pKi (Carbonic anhydrase 1): < 6.00; pKi (Carbonic anhydrase 12): < 6.00
8 | Cc1ccc2occ(/C=N/c3ccc(S(N)(=O)=O)cc3)c(=O)c2c1 [listing 2 of 2 here] | – | 8.17 | –
9 | N=C(N)NS(=O)(=O)c1ccc(/N=C/c2coc3ccccc3c2=O)cc1 | < 6.00 | – | pKi (Carbonic anhydrase 2): < 6.00; pKi (Carbonic anhydrase 1): < 6.00; pKi (Carbonic anhydrase 12): < 6.00
10 | NS(=O)(=O)c1ccc(C/N=C/c2coc3ccccc3c2=O)cc1 (stereo in doubt; 20) | – | < 6.00 | –
11 | Cc1ccc2occ(CNc3ccc(S(N)(=O)=O)cc3)c(=O)c2c1 | – | 7.82 | –
12 | NS(=O)(=O)c1ccc(C/N=C/c2coc3ccccc3c2=O)cc1 (stereo in doubt; 21) | – | 8.20 | –
13 | Cc1ccc2occ(/C=N/c3cc(C(F)(F)F)c(S(N)(=O)=O)cc3S(N)(=O)=O)c(=O)c2c1 | 7.49 | – | –
14 | Cc1ccc2occ(CNCc3ccc(S(N)(=O)=O)cc3)c(=O)c2c1 | – | 7.85 | –
15 | NS(=O)(=O)c1ccc(C/N=C/c2coc3ccccc3c2=O)cc1 | 7.49 | – | –
16 | Cc1ccc2occ(/C=N/CCc3ccc(S(N)(=O)=O)cc3)c(=O)c2c1 [listing 2 of 2 here] | – | 8.09 | –
17 | NS(=O)(=O)c1ccc(CCNCc2coc3ccccc3c2=O)cc1 | – | 8.14 | –
